Test results from patent publication US6887853B2, “Use of geldanamycin and related compounds for treatment of fibrogenic disorders” (The Trustees of Boston University, priority 2000, dated 2005).

Assays:
PN1 promoter = test: Protease nexin 1 (PN1) promoter luciferase reporter in transfected NIH 3T3 cells; format: cell-based, mouse; details: NIH 3T3, TGF-β alone, 24 hour
Procedure: (§1) The latter contains a 4.5 kb fragment of the PN1 promoter driving the luciferase gene. Cells were incubated for 24 hours after transfection, washed 3 times with PBS and then subjected to a 24 hour treatment with geldanamycin, TGF or both, as indicated. Cells were then harvested and luciferase activities determined; Transient transfections were performed using lipofectamine (Gibco BRL) as follows: 10 μg (total) of indicated plasmid DNA was mixed with 30 μl of lipofectamine and 500 μl of serum-free DMEM (Gibco). This mixture was incubated at room temperature for 20 minutes. Ten cm dishes of sub-confluent 3T3 fibroblasts were rinsed with PBS, and 5 ml of serum free DMEM added to each dish. The DNA/lipofectamine mixture was added to each dish and incubated in the 37° CO2 incubator for 4 hours. Ten ml of DMEM with 15% serum was added and plates were incubated overnight. Medium was replaced with 10% serum at 24 hours and extracts of cells were harvested at 48 hours. Cell extracts were obtained using Passive Lysis Buffer (Promega) and assays were performed according to the Promega protocol for pGL3 luciferase vectors. Protein concentrations of all extracts were determined and each luciferase reading is normalized for protein concentration. The 4.7 kb human MMP1 promoter driving luciferase was a gift of Constance Brinckerhoff (Dartmouth Medical School) (36). […]

[1] = tested on: TGF-β-sensitive promoter in the 3TPlux construct; test: TGF-β-sensitive 3TPlux luciferase reporter in transfected NIH 3T3 cells; format: cell-based, mouse; details: NIH 3T3, TGF-β by itself, 24 hour
Procedure: as §1

[2] = tested on: Smad DNA-binding activity; test: Electrophoretic mobility shift assay, Smad binding element (SBE), 3T3 nuclear extracts; format: cell-based, mouse; details: 15 minute TGF-β treatment alone
Procedure: (A) Cells were harvested and subjecting to electrophoretic mobility shift analysis using a Smad binding element (SBE). […] Where indicated, extracts were prepared with 100-fold higher levels of cold competitor probe. (B) Cells were subjected to 24 hour treatments with geldanamycin at various concentrations and extracts prepared and bound to control Oct-1-binding duplex oligos to monitor non-specific effects of geldanamycin.
Protein concentrations of extracts were determined using the BCA reagent (Pierce). […] The probes were end-labeled using γ-^32P-ATP and T4 polynucleotide kinase. Electrophoretic mobility shift assays (EMSA) were performed using 5 μg nuclear extract, 1 μl poly dI/dC (1 mg/ml), 0.1 ng of labeled probe (in 1 μl), and buffer G to achieve a final volume of 10 μl. Buffer G consists of 20 mM Hepes (pH 7.6), 100 mM KCl, 0.2 mM EDTA and 20% glycerol. Extracts and oligo were incubated 15 minutes at room temperature before adding loading buffer and running on a non-denaturing gel.
Electrophoretic mobility shift assays were performed to examine whether geldanamycin reduced the level of Smad DNA-binding activity in nuclear extracts. As before, cells were also subjected to TGF-β or TGF-β and geldanamycin together. […]

[3] = tested on: endogenous collagen transcript in mouse 3T3 cells; test: Northern analysis of endogenous α1(I) collagen message, NIH 3T3 fibroblasts; format: cell-based; details: TGF-β alone, 24 hour
Procedure: FIGS. 7A-7C show fibroblasts subjected to 24-hour treatments with geldanamycin, TGF or both. After 24 hours, total RNA was harvested and subjected to northern analysis using an α1(I) collagen probe. (A) Northern analysis using NIH 3T3 fibroblasts. (B) Northern analysis using primary healthy human dermal fibroblasts. (C) Methylene blue staining of the filter in (B). Numbers represent relative intensities of the lower collagen band after normalizing bands to GAPDH band intensity; The clone corresponding to Hsp90-α was purchased as an EST from Genome Systems. […] Sequencing was performed at the Boston University DNA/Protein Sequencing Core. Northern analysis of Hsp90 to total RNA from scleroderma and healthy fibroblasts was performed as previously described (10). Geldanamycin was a generous gift of the National Cancer Institute. Geldanamycin was dissolved in dimethylsulfoxide (DMSO) and used at a final concentration of 2 μM except where indicated otherwise. DMSO without geldanamycin was added as the carrier control for all experiments using geldanamycin. The chaperone function of Hsp90 is dependent on the hydrolysis of ATP (44). […] Geldanamycin was examined to determine whether its inhibition of Hsp90 affected TGF-β activation of collagen transcription in mouse 3T3 and human dermal fibroblasts. Endogenous collagen message levels were used as a measure of TGF-β signal transduction. […]

Substance: TGF-β
- effect of TGF-β on the expression of the PN1 promoter (PN1 promoter): little effect
- induction of the activity of the 3TPlux promoter [1]: 3.5 fold
- nuclear Smad after TGF-β treatment [2]: modest increase
- increase of endogenous collagen transcript level ([3]; NIH 3T3, absence of serum): approximately 6 fold
- increase of endogenous collagen transcript level ([3]; NIH 3T3, presence of serum): 2 fold
